Assay results: ChEMBL document CHEMBL2384945, “Discovery of RG7112: A Small-Molecule MDM2 Inhibitor in Clinical Development” (ACS Med Chem Lett, 2013)
pIC50: −log10 of the molar value.

How the values were obtained:
HCT-116 = assay: cells; settings: Homo sapiens, HCT-116, 120 h
Description: Cytotoxicity against human HCT116 cells expressing wild type p53 assessed as cell viability after 5 days by MTT assay

RKO = assay: cells; settings: Homo sapiens, 120 h
Description: Cytotoxicity against human RKO cells expressing wild type p53 assessed as cell viability after 5 days by MTT assay

SJSA-1 [1] = assay: cells; settings: Homo sapiens, SJSA-1, 120 h
Description: Cytotoxicity against human SJSA1 cells expressing wild type p53 assessed as cell viability after 5 days by MTT assay

SW480 = assay: cells; settings: Homo sapiens, SW480, 120 h
Description: Cytotoxicity against human SW480 cells expressing p53 mutant assessed as cell viability after 5 days by MTT assay

MDA-MB-435 = assay: cells; settings: Homo sapiens, MDA-MB-435, 120 h
Description: Cytotoxicity against human MDA-MB-435 cells expressing p53 mutant assessed as cell viability after 5 days by MTT assay

[2] = Apparent half life in mouse at 50 mg/kg, po; assay type: ADME, organism-based; parameters: dose 50 mg/kg, route oral; settings: in vivo, read-out: t1/2(app) (converted)
[3] = AUClast in mouse at 50 mg/kg, po; assay type: ADME, organism-based; parameters: time 0 - last, dose 50 mg/kg, route oral; settings: plasma
[4] = Cmax in mouse at 50 mg/kg, po; assay type: ADME, organism-based; parameters: dose 50 mg/kg, route oral; settings: in vivo
[5] = AUClast in mouse at 100 mg/kg, po; assay type: ADME, organism-based; parameters: time 0 - last, dose 100 mg/kg, route oral; settings: plasma
[6] = Apparent half life in mouse at 100 mg/kg, po; assay type: ADME, organism-based; parameters: dose 100 mg/kg, route oral; settings: in vivo, read-out: t1/2(app) (converted)
[7] = Cmax in mouse at 100 mg/kg, po; assay type: ADME, organism-based; parameters: dose 100 mg/kg, route oral; settings: in vivo
SJSA-1 [8] = assay: animal or person; settings: Mus musculus, SJSA-1, po, read-out: TGI
Description: Antitumor activity against human SJSA1 cells xenografted in nude mouse assessed as tumor growth inhibition at 50 mg/kg, po relative to control

[9] = Antitumor activity against human MHM cells xenografted in po dosed mouse relative to nutlin-3a; assay type: functional

| SMILES | pIC50 (HCT-116) | pIC50 (RKO) | pIC50 (SJSA-1 [1]) | pIC50 (SW480) | pIC50 (MDA-MB-435) | half-life [2] | AUC(0-t) [3] | Cmax [4] | AUC(0-t) [5] | half-life [6] | Cmax [7] | inhibition in vivo at 50 mg/kg (SJSA-1 [8]) | fold change (FC) [9] |
| --- | --- | --- | --- | --- | --- | --- | --- | --- | --- | --- | --- | --- | --- |
| CCOc1cc(C(C)(C)C)ccc1C1=N[C@@](C)(c2ccc(Cl)cc2)[C@@H](c2ccc(Cl)cc2)N1C(=O)N1CCN(CCCS(C)(=O)=O)CC1 | 4.84 | < 4.52 | 4.91 | < 4.52 | < 4.52 | – | – | – | – | – | – | – | – |
| CCOc1cc(C(C)(C)C)ccc1C1=N[C@@](C)(c2ccc(Cl)cc2)[C@@](C)(c2ccc(Cl)cc2)N1C(=O)N1CCNC(=O)C1 | 4.79 | 4.63 | 5.12 | < 4.52 | < 4.52 | – | – | – | – | – | – | – | – |
| CCOc1cc(C(C)(C)C)ccc1C1=N[C@@](C)(c2ccc(Cl)cc2)[C@@](C)(c2ccc(Cl)cc2)N1C(=O)N1CCNCC1 | 5.92 | 6.30 | 6.22 | 5.57 | 5.38 | – | – | – | – | – | – | – | – |
| CCOc1cc(C(C)(C)C)ccc1C1=N[C@@](C)(c2ccc(Cl)cc2)[C@@](C)(c2ccc(Cl)cc2)N1C(=O)N1CCCCC1 | 4.97 | 5.17 | 5.14 | 4.64 | 4.60 | – | – | – | – | – | – | – | – |
| CCOc1cc(C(C)(C)C)ccc1C1=N[C@@](C)(c2ccc(Cl)cc2)[C@@](C)(c2ccc(Cl)cc2)N1C(=O)N1CCN(C(C)=O)CC1 | 6.22 | 6.30 | 6.52 | 4.75 | 4.83 | 2.4 h | 64900 ng·h/mL | 19600 ng/mL | – | – | – | – | – |
| CCOc1cc(C(C)(C)C)ccc1C1=N[C@@](C)(c2ccc(Cl)cc2)[C@@](C)(c2ccc(Cl)cc2)N1C(=O)N1CCN(CCC(F)(F)F)CC1 | 5.89 | 6.40 | 5.60 | 5.30 | 4.53 | – | – | – | – | – | – | – | – |
| CCOc1cc(C(C)(C)C)ccc1C1=N[C@@](C)(c2ccc(Cl)cc2)[C@@](C)(c2ccc(Cl)cc2)N1C(=O)N1CCN(CCO)CC1 | 6.10 | 6.52 | 6.70 | 4.91 | 5.02 | – | – | – | – | – | – | – | – |
| CCOc1cc(C(C)(C)C)ccc1C1=N[C@@](C)(c2ccc(Cl)cc2)[C@@](C)(c2ccc(Cl)cc2)N1C(=O)N1CCN(CCNS(C)(=O)=O)CC1 | 6.05 | 6.52 | 6.70 | 5.04 | 5.14 | – | – | – | – | – | – | – | – |
| CCOc1cc(C(C)(C)C)ccc1C1=N[C@@](C)(c2ccc(Cl)cc2)[C@@](C)(c2ccc(Cl)cc2)N1C(=O)N1CCN(CCNC(C)=O)CC1 | 6.30 | 6.52 | 7.00 | 4.96 | 4.98 | 2.3 h | 136000 ng·h/mL | 12000 ng/mL | – | – | – | – | – |
| CCOc1cc(C(C)(C)C)ccc1C1=N[C@@](C)(c2ccc(Cl)cc2)[C@@](C)(c2ccc(Cl)cc2)N1C(=O)N1CCN(CC(=O)N2CCCC2)CC1 | 6.15 | 6.30 | 6.52 | 4.84 | 5.02 | 4.7 h | 8300 ng·h/mL | 2300 ng/mL | – | – | – | – | – |
| CCOc1cc(C(C)(C)C)ccc1C1=N[C@@](C)(c2ccc(Cl)cc2)[C@@](C)(c2ccc(Cl)cc2)N1C(=O)N1CCN(CC(=O)N2CCOCC2)CC1 | 6.22 | 6.22 | 6.70 | 4.84 | 4.76 | – | – | – | – | – | – | – | – |
| CCOc1cc(C(C)(C)C)ccc1C1=N[C@@](CC)(c2ccc(Cl)cc2)[C@@](CC)(c2ccc(Cl)cc2)N1C(=O)N1CCN(CCCS(C)(=O)=O)CC1 | 4.86 | 4.90 | < 4.52 | 4.61 | 4.55 | – | – | – | – | – | – | – | – |
| COc1ccc(C2=N[C@@H](c3ccc(Cl)cc3)[C@@H](c3ccc(Cl)cc3)N2C(=O)N2CCNC(=O)C2)c(OC(C)C)c1 [NUTLIN-3] | 5.82 | 5.82 | 5.82 | – | – | – | – | – | 65000 ng·h/mL | 2.6 h | 12100 ng/mL | – | – |
| CCOc1cc(C(C)(C)C)ccc1C1=N[C@@](C)(c2ccc(Cl)cc2)[C@@](C)(c2ccc(Cl)cc2)N1C(=O)N1CCN(CCCS(C)(=O)=O)CC1 [RO-5045337] | 6.30 | 6.40 | 6.52 | 4.78 | 5.00 | 8.8 h | 251000 ng·h/mL | 15500 ng/mL | – | – | – | 74% | 4 |
